Results taken from patent publication EP0326329B1, “Quinazoline derivatives useful as insecticides” (Dow AgroSciences LLC, priority 1988, dated 1989).

Assays:
Format in all cases: in vivo
[1] = system: Erysiphe graminis tritici (powdery mildew); test: Greenhouse Test 1, foliar spray fungicide screen (POWD MDEW), host wheat; details: disease control rating, 400 ppm (+++ at 100 ppm)
[2] = system: Pyricularia oryzae (rice blast); details: disease control rating, foliar spray, host rice; 400 ppm (+++ at 100 ppm)
[3] = system: Puccinia recondita tritici (leaf rust); test: Greenhouse Test 1, foliar spray fungicide screen (LEAF RUST), host wheat; details: disease control rating, 400 ppm (+++ at 100 ppm)
[4] = system: Botrytis cinerea (gray mold); test: Greenhouse Test 1, foliar spray fungicide screen (GRAY MOLD), host grape berries; details: disease control rating, 400 ppm (+++ at 100 ppm)
[5] = system: Pseudoperonospora cubensis (downy mildew); test: Greenhouse Test 1, foliar spray fungicide screen (DOWN MDEW), host squash; details: disease control rating, 400 ppm (+++ at 100 ppm)
[6] = system: Southern corn rootworm (Diabrotica undecimpuctata howardi Barber); test: Mite/insect screen, soil treatment (CRW); details: percent mortality, soil treatment; for mortality at 12 ppm / mortality at 24 ppm: Diabrotica, read-out: CRW RESULTS %; for mortality at 24 ppm: CRW rate 24.00 ppm
Procedure, shortened: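 Compounds dissolved in acetone/alcohol (50:50) with Toximul R/S emulsifiers, diluted with water. Soil (15 g, with presoaked corn seed) treated with 1 mL test solution, dried 6–12 h, then five 2–3 instar larvae added; held at 23°C. Percent mortality and phytotoxicity scored after standard exposure periods.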

[7] = system: southern armyworm (Spodopetra eridania Cramer); test: Mite/insect screen, sprayed squash leaves (SAW); details: percent mortality; for mortality at 200 ppm / mortality at 400 ppm: Spodoptera eridania, read-out: SAW RESULTS %; for mortality at 400 ppm: spray rate 400 ppm
Procedure, shortened: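 Compounds dissolved in acetone/alcohol with TOXIMUL R/S emulsifiers, diluted with water to test concentrations, and sprayed to runoff on both leaf surfaces at 10 psi, then dried 1 h. Excised treated squash leaves given southern armyworm larvae; aphid and spider mite tests on sprayed squash cotyledons. Percent mortality and phytotoxicity scored after standard exposure.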

[8] = system: Twospotted spider mites (Tetranychus urticae Koch); test: Mite/insect screen, sprayed squash cotyledons (SM); details: percent mortality; for mortality at 200 ppm / mortality at 400 ppm: Tetranychus urticae, read-out: SM RESULTS %; for mortality at 400 ppm: spray rate 400 ppm
Procedure, shortened: (§1)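 Compounds were dissolved in 50:50 acetone/alcohol containing sulfonate/nonionic emulsifier blends (23 g and 13 g per liter) and diluted with water to test concentrations. Leaves were sprayed on both surfaces to runoff and dried for one hour. Percent mortality and phytotoxicity were scored after standard exposure periods.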

[9] = system: melon aphids (Aphis gossypii Glover); test: Mite/insect screen, sprayed squash cotyledons (MA); details: percent mortality; for mortality at 200 ppm / mortality at 400 ppm: Aphis gossypii, read-out: MA RESULTS %; for mortality at 400 ppm: spray rate 400 ppm
Procedure, shortened: as §1

Structure (SMILES)	POWD MDEW [1]	RICE BLAST [2]	LEAF RUST [3]	GRAY MOLD [4]	DOWN MDEW [5]	mortality at 12 ppm ([6]; CRW rate 12.00 ppm) [%]	mortality at 24 ppm [6] [%]	mortality at 200 ppm ([7]; spray rate 200 ppm) [%]	mortality at 400 ppm [7] [%]	mortality at 200 ppm ([8]; spray rate 200 ppm) [%]	mortality at 400 ppm [8] [%]	mortality at 200 ppm ([9]; spray rate 200 ppm) [%]	mortality at 400 ppm [9] [%]	CRW RESULTS % ([6]; CRW rate 12.00 ppm) [%]	SAW RESULTS % ([7]; spray rate 200 ppm) [%]	SM RESULTS % ([8]; spray rate 200 ppm) [%]	MA RESULTS % ([9]; spray rate 200 ppm) [%]
c1ccc(Oc2ccc(CCCc3ncnc4ccccc34)cc2)cc1 [Example 164, 4-[3-(4-phenoxyphenyl)propyl]quinazoline]	+ (+ = 20-89% control at 400 ppm)	+++ (+++ = 90-100% control at 100 ppm)	+++ (+++ = 90-100% control at 100 ppm)	- (- = 0-19% control at 400 ppm)	+++ (+++ = 90-100% control at 100 ppm)	0	0	40	40	80	20	80	80	–	–	–	–
Fc1cccc2c(NCCc3ccc(Cl)cc3)ncnc12 [Example 78, 8-fluoro-N-[2-(4-chlorophenyl)ethyl]-4-quinazolinamine]	+ (+ = 20-89% control at 400 ppm)	+++ (+++ = 90-100% control at 100 ppm)	+++ (+++ = 90-100% control at 100 ppm)	- (- = 0-19% control at 400 ppm)	+++ (+++ = 90-100% control at 100 ppm)	0	100	100	80	0	0	0	0	–	–	–	–
COc1ccccc1CCOc1ncnc2ccccc12 [Example 14, 4-[2-(2-methoxyphenyl)ethoxy]quinazoline]	+ (+ = 20-89% control at 400 ppm)	+ (+ = 20-89% control at 400 ppm)	+ (+ = 20-89% control at 400 ppm)	- (- = 0-19% control at 400 ppm)	++ (++ = 90-100% control at 400 ppm)	–	0	–	0	–	0	–	0	–	–	–	–
CC(C)(C)c1ccc(CCCNc2ncnc3ccc(Cl)cc23)cc1 [Example 140, 6-chloro-N-(3-[4-(1,1-dimethylethyl)phenyl]propyl]-4-quinazoline]	+ (+ = 20-89% control at 400 ppm)	++ (++ = 90-100% control at 400 ppm)	+ (+ = 20-89% control at 400 ppm)	- (- = 0-19% control at 400 ppm)	++ (++ = 90-100% control at 400 ppm)	0	0	0	0	0	80	0	0	–	–	–	–
CC(C)(C)c1ccc(CCOc2ncnc3ccc(Cl)cc23)cc1 [Example 174, 6-chloro-4-[2-[4-(t-butyl)phenyl]ethoxy]quinazoline]	+ (+ = 20-89% control at 400 ppm)	++ (++ = 90-100% control at 400 ppm)	- (- = 0-19% control at 400 ppm)	- (- = 0-19% control at 400 ppm)	++ (++ = 90-100% control at 400 ppm)	0	100	0	0	80	40	0	0	–	–	–	–
c1ccc2cc(CCOc3ncnc4ccccc34)ccc2c1 [Example 80, 4-[2-(2-naphthyl)ethoxy]quinazoline]	+++ (+++ = 90-100% control at 100 ppm)	+++ (+++ = 90-100% control at 100 ppm)	+++ (+++ = 90-100% control at 100 ppm)	- (- = 0-19% control at 400 ppm)	+++ (+++ = 90-100% control at 100 ppm)	–	100	–	0	–	100	–	100	–	–	–	–
Cc1ccc(CCOc2ncnc3c(F)cccc23)cc1 [Example 99]	+++ (+++ = 90-100% control at 100 ppm)	- (- = 0-19% control at 400 ppm)	+++ (+++ = 90-100% control at 100 ppm)	- (- = 0-19% control at 400 ppm)	+++ (+++ = 90-100% control at 100 ppm)	0	0	0	0	100	0	100	0	–	–	–	–
Fc1cccc2c(OCCc3ccccc3C(F)(F)F)ncnc12 [Example 56, 8-fluoro-4-[2-[2-(trifluoromethyl)phenyl]ethoxy]quinazoline]	+++ (+++ = 90-100% control at 100 ppm)	+++ (+++ = 90-100% control at 100 ppm)	+++ (+++ = 90-100% control at 100 ppm)	- (- = 0-19% control at 400 ppm)	+++ (+++ = 90-100% control at 100 ppm)	0	0	0	0	40	0	100	0	–	–	–	–
COc1ccc(CCOc2ncnc3ccccc23)cc1OC [Example 73, 4-[2-(3,4-dimethoxyphenyl)ethoxy]quinazoline]	++ (++ = 90-100% control at 400 ppm)	- (- = 0-19% control at 400 ppm)	+++ (+++ = 90-100% control at 100 ppm)	- (- = 0-19% control at 400 ppm)	+++ (+++ = 90-100% control at 100 ppm)	–	100	–	0	–	0	–	0	–	–	–	–
Clc1ccc2ncnc(NCCc3ccccc3Oc3ccccc3)c2c1 [Example 57, 6-chloro-N-[2-(2-phenoxyphenyl)ethyl]-4-quinazolinamine]	- (- = 0-19% control at 400 ppm)	- (- = 0-19% control at 400 ppm)	- (- = 0-19% control at 400 ppm)	- (- = 0-19% control at 400 ppm)	- (- = 0-19% control at 400 ppm)	0	0	80	0	0	0	0	0	0	100	0	0
Cc1cccc(CCOc2ncnc3ccccc23)c1 [Example 97, 4-[2-(3-methylphenyl)ethoxy]quinazoline]	+++ (+++ = 90-100% control at 100 ppm)	++ (++ = 90-100% control at 400 ppm)	+++ (+++ = 90-100% control at 100 ppm)	- (- = 0-19% control at 400 ppm)	++ (++ = 90-100% control at 400 ppm)	–	0	–	0	–	0	–	0	–	–	–	–
CCOc1ccc(CCCOc2ncnc3ccccc23)cc1 [Example 158, 4-[3-(4-ethoxyphenyl)propoxy]quinazoline]	+ (+ = 20-89% control at 400 ppm)	++ (++ = 90-100% control at 400 ppm)	+ (+ = 20-89% control at 400 ppm)	- (- = 0-19% control at 400 ppm)	+++ (+++ = 90-100% control at 100 ppm)	0	0	0	0	0	60	0	40	–	–	–	–
Fc1cccc2c(OCCc3ccc(Cl)cc3)ncnc12 [Example 55, 4-[2-(4-chlorophenyl)ethoxy]-8-fluoroquinazoline]	+++ (+++ = 90-100% control at 100 ppm)	+++ (+++ = 90-100% control at 100 ppm)	+++ (+++ = 90-100% control at 100 ppm)	- (- = 0-19% control at 400 ppm)	+++ (+++ = 90-100% control at 100 ppm)	0	0	100	0	100	0	100	0	–	–	–	–
